According to patent US20100298141A1, “SUBSTITUTED PYRIDINE N-OXIDE HERBICIDES” (E. I. DU PONT DE NEMOURS AND COMPANY, priority 2007, published 2010):

What was measured:
[1] = system: velvetleaf; assay: Test C pre-/postemergence test; assay type: in vivo, Abutilon theophrasti; conditions: for Plant response rating, Velvetleaf: 31 g ai/ha, scale 0 to 100 (0 no effect, 100 complete control)
In short: (§1)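 Seeds were planted and treated preemergence with test chemical in a non-phytotoxic solvent mixture containing surfactant. Postemergence applications of the same formulation went onto plants 2 to 18 cm tall (1- to 4-leaf stage). A dash marks no test result.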

[2] = system: barnyardgrass; assay: Test C flooded paddy test; assay type: in vivo, Echinochloa crus-galli; conditions: Flood
In short: (§2)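 Under a constant 3 cm flood, test compounds went directly into the paddy water. Following 13 to 15 days of greenhouse growth, treated species and controls were compared by eye.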

[3] = system: redroot pigweed; assay: Test A pre-/postemergence greenhouse test; assay type: in vivo, Amaranthus retroflexus; conditions: for Plant response rating, Pigweed: 0 to 100 scale where 0 is no effect and 100 is complete control; for Pigweed plant response rating: 0 to 100 scale
In short: (§3)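 Sowing in loam/sand; same-day pre (directed soil spray) and post (foliar, 1–2 leaf, 2–10 cm) treatment with surfactant-containing non-phytotoxic solvent formulation; ~10 days in greenhouse; eye-scored injury against untreated plants.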

[4] = system: duck salad; assay: Test C flooded paddy test; assay type: in vivo, Heteranthera limosa; conditions: Flood
In short: as §2

[5] = system: crabgrass; assay: Test C pre-/postemergence test; assay type: in vivo, Digitaria sanguinalis; conditions: for Plant response rating, Crabgrass, Large: 31 g ai/ha, scale 0 to 100 (0 no effect, 100 complete control)
In short: as §1

[6] = system: wild oat; assay: Test C pre-/postemergence test; assay type: in vivo, Avena fatua; conditions: for Plant response rating, Oat, Wild: 31 g ai/ha, scale 0 to 100 (0 no effect, 100 complete control)
In short: as §1

[7] = system: wheat; assay: Test C pre-/postemergence test; assay type: in vivo, Triticum aestivum; conditions: for Plant response rating, Wheat: 31 g ai/ha, scale 0 to 100 (0 no effect, 100 complete control)
In short: as §1

[8] = system: common (oilseed) sunflower; assay: Test C pre-/postemergence test; assay type: in vivo, Helianthus annuus
In short: as §1

[9] = system: bermudagrass; assay: Test C pre-/postemergence test; assay type: in vivo, Cynodon dactylon; conditions: for Plant response rating, Bermudagrass: 31 g ai/ha
In short: as §1

[10] = system: corn; assay: Test A pre-/postemergence greenhouse test; assay type: in vivo, Zea mays; conditions: for Plant response rating, Corn: 0 to 100 scale where 0 is no effect and 100 is complete control; for Corn plant response rating: 0 to 100 scale
In short: as §3

[11] = system: catchweed bedstraw; assay: Test C pre-/postemergence test; assay type: in vivo, Galium aparine; conditions: for Plant response rating, Galium: 31 g ai/ha, scale 0 to 100 (0 no effect, 100 complete control)
In short: as §1

[12] = system: eastern black nightshade; assay: Test C pre-/postemergence test; assay type: in vivo, Solanum ptycanthum
In short: as §1

[13] = system: Surinam grass; assay: Test C pre-/postemergence test; assay type: in vivo, Brachiaria decumbens; conditions: for Plant response rating, Surinam Grass: 31 g ai/ha, scale 0 to 100 (0 no effect, 100 complete control)
In short: as §1

[14] = system: kochia; assay: Test C pre-/postemergence test; assay type: in vivo, Kochia scoparia; conditions: for Plant response rating, Kochia: 31 g ai/ha, scale 0 to 100 (0 no effect, 100 complete control)
In short: as §1

[15] = system: blackgrass; assay: Test C pre-/postemergence test; assay type: in vivo, Alopecurus myosuroides; conditions: for Plant response rating, Blackgrass: 31 g ai/ha, scale 0 to 100 (0 no effect, 100 complete control)
In short: as §1

[16] = system: rice; assay: Test C flooded paddy test; assay type: in vivo, Oryza sativa; conditions: Flood
In short: as §2

[17] = system: pigweed; assay: Test C pre-/postemergence test; assay type: in vivo, Amaranthus retroflexus; conditions: for Plant response rating, Pigweed: 31 g ai/ha, scale 0 to 100 (0 no effect, 100 complete control)
In short: as §1

[18] = 62 g ai/ha, Preemergence, scale 0 to 100
[19] = 125 g ai/ha, preemergence, scale 0 (no effect) to 100 (complete control)
[20] = preemergence, 250 g ai/ha, scale 0 (no effect) to 100 (complete control)
[21] = 31 g ai/ha, scale 0 to 100 (0 no effect, 100 complete control)
[22] = 62 g ai/ha, scale 0 to 100 (0 no effect, 100 complete control)
[23] = 125 g ai/ha, scale 0 to 100, 0 no effect, 100 complete control, 13 to 15 days
[24] = 250 g ai/ha, scale 0 to 100, 0 no effect, 100 complete control, 13 to 15 days
[25] = Postemergence, 500 g ai/ha, 0 is no effect, 100 is complete control
[26] = Preemergence, 125 g ai/ha, 0 no effect, 100 complete control
[27] = 62 g ai/ha, Preemergence, scale 0 to 100 (0 no effect, 100 complete control)
[28] = Preemergence, scale 0 to 100 (0 no effect, 100 complete control)
[29] = 62 g ai/ha, scale 0 to 100, 0 no effect, 100 complete control, 13 to 15 days
[30] = 250 g ai/ha, scale 0 to 100 (0 no effect, 100 complete control)
[31] = Postemergence, 125 g ai/ha, 0 is no effect, 100 is complete control
[32] = Preemergence, 31 g ai/ha, scale 0 to 100 (0 no effect, 100 complete control)
[33] = preemergence, 125 g ai/ha, scale 0 (no effect) to 100 (complete control)

Cn1nc(C(F)(F)F)c(C[S+]([O-])c2ccc(Cl)c[n+]2[O-])c1OCC(F)F (stereo not drawn) [Compound 85]
Velvetleaf plant response rating [1, 18]: 70 | Velvetleaf plant response rating [1, 19]: 95 | Plant response rating, Velvetleaf ([1]; Preemergence): 50 | Velvetleaf plant response rating [1, 20]: 100 | Plant response rating, Barnyardgrass [2, 21]: 0 | Plant response rating, Barnyardgrass [2, 22]: 0 | Plant response rating, Barnyardgrass [2, 23]: 25 | Plant response rating, Barnyardgrass [2, 24]: 70 | Plant response rating, Pigweed ([3]; Postemergence, 125 g ai/ha): 60 | Pigweed plant response rating [3, 25]: 90 | Pigweed plant response rating [3, 26]: 70 | Plant response rating, Pigweed ([3]; Preemergence, 500 g ai/ha): 90 | Plant response rating, Ducksalad [4, 21]: 35 | Plant response rating, Ducksalad [4, 22]: 45 | Plant response rating, Ducksalad [4, 23]: 75 | Plant response rating, Ducksalad [4, 24]: 80 | Crabgrass, Large plant response rating [5, 18]: 85 | Plant response rating, Crabgrass, Large ([5]; Preemergence): 80 | Crabgrass, Large plant response rating [5, 20]: 100 | Oat, Wild plant response rating [6, 18]: 80 | Oat, Wild plant response rating [6, 19]: 85 | Plant response rating, Oat, Wild ([6]; Preemergence): 80 | Oat, Wild plant response rating [6, 20]: 100 | Wheat plant response rating [7, 18]: 50 | Wheat plant response rating [7, 19]: 70 | Plant response rating, Wheat ([7]; Preemergence): 50 | Wheat plant response rating [7, 20]: 100 | Sunflower plant response rating [8, 18]: 30 | Sunflower plant response rating [8, 19]: 50 | Sunflower plant response rating [8, 20]: 80 | Bermudagrass plant response rating [9, 27]: 100 | Bermudagrass plant response rating [9, 19]: 100 | Plant response rating, Bermudagrass [9, 28]: 90 | Bermudagrass plant response rating [9, 20]: 100 | Plant response rating, Corn ([10]; Postemergence, 125 g ai/ha): 0 | Corn plant response rating [10, 25]: 60 | Corn plant response rating [10, 26]: 0 | Plant response rating, Corn ([10]; Preemergence, 500 g ai/ha): 80 | Galium plant response rating [11, 18]: 100 | Galium plant response rating [11, 19]: 100 | Plant response rating, Galium ([11]; Preemergence): 98 | Galium plant response rating [11, 20]: 100 | Nightshade plant response rating [12, 18]: 85 | Nightshade plant response rating [12, 19]: 100 | Nightshade plant response rating [12, 20]: 100 | Surinam Grass plant response rating [13, 18]: 95 | Surinam Grass plant response rating [13, 19]: 100 | Plant response rating, Surinam Grass ([13]; Preemergence): 85 | Surinam Grass plant response rating [13, 20]: 100 | Kochia plant response rating [14, 18]: 100 | Kochia plant response rating [14, 19]: 100 | Plant response rating, Kochia ([14]; Preemergence): 100 | Kochia plant response rating [14, 20]: 100 | Blackgrass plant response rating [15, 18]: 100 | Blackgrass plant response rating [15, 19]: 100 | Plant response rating, Blackgrass ([15]; Preemergence): 100 | Blackgrass plant response rating [15, 20]: 100 | Plant response rating, Rice [16, 21]: 0 | Plant response rating, Rice [16, 22]: 0 | Plant response rating, Rice [16, 23]: 30 | Plant response rating, Rice [16, 24]: 50 | Pigweed plant response rating [17, 18]: 100 | Pigweed plant response rating [17, 19]: 100 | Plant response rating, Pigweed ([17]; Preemergence): 100 | Pigweed plant response rating [17, 20]: 100

Cn1nc(C(F)(F)F)c(C[S+]([O-])c2ccc(Cl)c[n+]2[O-])c1Cl (racemic) [Compound 17]
Velvetleaf plant response rating [1, 18]: 80 | Plant response rating, Velvetleaf ([1]; Preemergence): 0 | Plant response rating, Barnyardgrass [2, 21]: 20 | Plant response rating, Barnyardgrass [2, 29]: 65 | Plant response rating, Barnyardgrass [2, 23]: 85 | Plant response rating, Barnyardgrass [2, 30]: 85 | Pigweed plant response rating [3, 31]: 40 | Pigweed plant response rating [3, 25]: 80 | Pigweed plant response rating [3, 26]: 100 | Plant response rating, Pigweed ([3]; Preemergence, 500 g ai/ha): 100 | Plant response rating, Ducksalad [4, 21]: 60 | Plant response rating, Ducksalad [4, 29]: 80 | Plant response rating, Ducksalad [4, 23]: 85 | Plant response rating, Ducksalad [4, 30]: 95 | Crabgrass, Large plant response rating [5, 18]: 100 | Plant response rating, Crabgrass, Large ([5]; Preemergence): 98 | Plant response rating (0 to 100), Crabgrass, Large ([5]; Preemergence, 250 g ai/ha): 100 | Oat, Wild plant response rating [6, 18]: 40 | Plant response rating, Oat, Wild ([6]; Preemergence): 0 | Wheat plant response rating [7, 18]: 30 | Plant response rating, Wheat ([7]; Preemergence): 10 | Sunflower plant response rating [8, 18]: 5 | Plant response rating, Sunflower [8, 32]: 0 | Bermudagrass plant response rating [9, 27]: 100 | Plant response rating, Bermudagrass [9, 28]: 80 | Plant response rating (0 to 100), Bermudagrass ([9]; Preemergence, 250 g ai/ha): 100 | Bermudagrass plant response rating [9, 33]: 100 | Corn plant response rating [10, 31]: 50 | Corn plant response rating [10, 25]: 60 | Corn plant response rating [10, 26]: 0 | Plant response rating, Corn ([10]; Preemergence, 500 g ai/ha): 80 | Plant response rating, Galium ([11]; Preemergence): 100 | Plant response rating (0 to 100), Galium ([11]; Preemergence, 250 g ai/ha): 100 | Nightshade plant response rating [12, 18]: 100 | Plant response rating, Nightshade [12, 32]: 98 | Surinam Grass plant response rating [13, 18]: 95 | Plant response rating, Surinam Grass ([13]; Preemergence): 0 | Kochia plant response rating [14, 18]: 100 | Plant response rating, Kochia ([14]; Preemergence): 80 | Blackgrass plant response rating [15, 18]: 80 | Plant response rating, Blackgrass ([15]; Preemergence): 80 | Plant response rating (0 to 100), Blackgrass ([15]; Preemergence, 250 g ai/ha): 100 | Blackgrass plant response rating [15, 33]: 85 | Plant response rating, Rice [16, 21]: 0 | Plant response rating, Rice [16, 29]: 70 | Plant response rating, Rice [16, 23]: 75 | Plant response rating, Rice [16, 30]: 80 | Pigweed plant response rating [17, 18]: 100 | Plant response rating, Pigweed ([17]; Preemergence): 100
